Test results: US9796671B2, “Aurora kinase inhibitors” (REGENTS OF THE UNIVERSITY OF MINNESOTA, priority 2012, dated 2017)

What was measured:
Aurora A = biological target: T1, Aurora A (Homo sapiens, UniProt O14965); experiment: Aurora A in vitro kinase assay; type: biochemical; settings: 1 μM, compared with control
T1 construct: purchased Millipore
T1 sequence (O14965 1-403): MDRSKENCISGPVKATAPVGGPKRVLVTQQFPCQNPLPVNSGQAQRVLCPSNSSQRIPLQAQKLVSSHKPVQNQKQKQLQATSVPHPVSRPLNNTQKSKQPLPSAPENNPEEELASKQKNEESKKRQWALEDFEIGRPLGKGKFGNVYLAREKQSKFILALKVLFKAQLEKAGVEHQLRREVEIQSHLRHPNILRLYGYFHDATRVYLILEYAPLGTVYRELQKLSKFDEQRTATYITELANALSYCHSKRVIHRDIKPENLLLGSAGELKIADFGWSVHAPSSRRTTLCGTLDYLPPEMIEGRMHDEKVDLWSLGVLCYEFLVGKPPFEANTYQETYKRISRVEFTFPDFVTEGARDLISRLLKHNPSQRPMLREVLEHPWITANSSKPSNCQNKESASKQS
Method: Proteins are resolved by SDS-PAGE and transferred onto polyvinylidene difluoride membranes (Millipore, Mass.), which are blocked with nonfat milk and hybridized with specific primary antibodies. The protein bands are visualized using an enhanced chemiluminescence reagent (GE Healthcare, Pittsburgh, Pa.) after hybridization with a horseradish peroxidase-conjugated secondary antibody. […] Reactions are carried out in 1× kinase buffer (25 mM Tris-HCl pH 7.5, 5 mM beta-glycerophosphate, 2 mM dithiothreitol (DTT), 0.1 mM Na3VO4, 10 mM MgCl2 and 5 mM MnCl2) containing 100 μM ATP at 30° C. for 30 minutes. Reactions are stopped and proteins detected by Western blotting. An in vitro kinase assay was used to determine whether Compound 1 could inhibit Aurora B kinase activity using recombinant Aurora B protein and various concentrations of Compound 1. […] The effect of Compound 1 on Aurora A kinase activity using an in vitro kinase assay was also examined.

A549 cells = experiment: Polyploidy induction (immunofluorescence microscopy); type: cell-based, human; settings: A549, 1 μM, 48 h
Method: A549 cells are seeded in four-chamber slides and cultured overnight. The cells are then treated with DMSO or Compound 1 (1 μM) for 48 h at 37° C. After treatment, the cells are washed with PBS and fixed with methanol for 12 hours, followed by blocking with 3% PBS for 1 hour. The cells are then incubated with α-tubulin antibodies (1:100) overnight and DNA is stained with 4′-6-diamidino-2-phenylindole (DAPI, Pierce) for 30 minutes at room temperature. The cells are evaluated by fluorescent microscopy.
Aurora B inhibition leads to failure in cytokinesis and abnormal exit from mitosis, which could result in polyploidy cells, cell cycle arrest, and ultimately apoptosis. The ability to induce polyploidy cells was further examined in A549 cells treated or not treated with Compound 1. […] In addition, Compound 1 treatment for 48 hours caused an increase in the number of A549 and H520 cells occupying the G2/M phase. Moreover, exposure of these cells to Compound 1 for 72 hours induced apoptosis as measured by Annexin V/PI staining. For example, exposure to 5 μM Compound 1 induced 48% or 82% apoptosis in A549 cells and H520 cells, compared to 8% or 38% in untreated control cells, respectively.

[1] = test system: A549 lung cancer cells xenograft; experiment: Xenograft mouse model, oral gavage (Example 7); type: in vivo; settings: 40 mg/kg oral gavage 5 times a week
Source text: Athymic nude mice (6 week old nu/nu female mice, Harlan Laboratory, Minneapolis, Minn.) were inoculated in the right flank with A549 lung cancer cells (3*10^6 cells/mouse). Mice were maintained under “specific pathogen-free” conditions based on the guidelines established by the University of Minnesota Institutional Animal Care and Use Committee. Tumors were allowed to grow to an average of ˜53.5±34.5 mm^3 and then mice were divided into 2 equal groups with a similar average tumor volume (group 1; n=15), vehicle only; (group 2, […]), compound 1 at 40 mg/kg. Treatment with vehicle or compound 1 was initiated on Day 13 after inoculation of cells and continued to Day 80 (˜9 wks) and was administered by oral gavage 5 times a week. Tumor volume was measured once a week and body weight was measured once a week. Compound 1 was prepared in 2.5% DMSO/5% PEG 400/5% Tween-80 in 1×PBS and sonicated for ˜20 minutes. […] Data are shown as means±S.E (FIG. 1).

Akt1 = Akt1 (Homo sapiens, UniProt P31749); experiment: Akt1 in vitro kinase assay; type: biochemical
Akt1, sequence (P31749 whole entry, species assumed): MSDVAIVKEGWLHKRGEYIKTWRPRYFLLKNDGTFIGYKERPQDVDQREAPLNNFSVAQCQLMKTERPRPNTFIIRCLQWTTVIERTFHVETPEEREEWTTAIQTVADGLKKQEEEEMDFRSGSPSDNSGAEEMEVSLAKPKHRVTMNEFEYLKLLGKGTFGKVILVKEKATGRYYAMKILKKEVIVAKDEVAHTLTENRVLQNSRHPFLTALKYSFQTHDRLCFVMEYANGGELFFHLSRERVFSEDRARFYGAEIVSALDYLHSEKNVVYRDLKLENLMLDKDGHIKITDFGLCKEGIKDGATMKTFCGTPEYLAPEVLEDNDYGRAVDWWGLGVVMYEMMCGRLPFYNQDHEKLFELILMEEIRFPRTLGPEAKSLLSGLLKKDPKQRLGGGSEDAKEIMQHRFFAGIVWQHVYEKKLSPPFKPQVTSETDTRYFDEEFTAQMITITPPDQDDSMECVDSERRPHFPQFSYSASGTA
Method: According to the kinase profiler assay results, Akt2 also might be a potential target of Compound 1. An Akt1 and Akt2 in vitro kinase assays was performed.

[2] = test system: A549 cells transfected with mock shRNA; experiment: Anchorage-independent growth, mock shRNA cells; type: cell-based; settings: Homo sapiens
Method: (§1) Tumor cells are suspended in basal medium Eagle (BME) medium and added to 0.6% agar, with different concentrations of Compound 1 in a base layer and a top layer of 0.3% agar. The cultures are maintained at 37° C. in a 5% CO2 incubator for 1 to 2 weeks and then colonies are counted under a microscope using the Image-Pro Plus software (v.4) program (Media Cybernetics, Silver Spring, Md.).
The effect of knocking down Aurora B expression in A549 cancer cells on the cell's sensitivity to Compound 1 was evaluated. […] Compound 1 (0.5 μM) inhibited anchorage-independent growth of A549 cells transfected with mock shRNA by about 90%.

A549 lung cancer cells = experiment: Cytotoxicity (MTS assay); type: cell-based, human
Method: To estimate the cytotoxicity of Compound 1, cells are seeded (8×10^3 cells per well) in 96-well plates and cultured overnight. Cells are fed with fresh medium and treated with different doses of Compound 1. After culturing for various times, the cytotoxicity of Compound 1 is measured using an MTS assay kit (Promega, Madison, Wis.) according to the manufacturer's instructions.
The toxicity of Compound 1 on both MRC-5 normal lung cells and A549 lung cancer cells was then examined.

HCT116 p53+/+ cells = experiment: Soft agar assay, p53 wildtype colon cancer cells; type: cell-based
Method: as §1
The effect of compound 1 in a pair of colon cancer cell lines, p53 wildtype (HCT116 p53^+/+) and p53-deficient (HCT116 p53^−/−) cells was also examined to determine whether the sensitivity of cells to compound 1 directly correlates with the status of p53 in cells.

In the case of O=C(/C=C/c1ccc2c(c1)OCO2)/C=C1/C(=O)Nc2ccccc21 [Compound 1], the “effect on histone H3 (Ser10) phosphorylation by Aurora A” value (Aurora A) is reported as “No effect”, the “induction of polyploidy cells” value (A549 cells) is reported as “caused the induction of polyploidy cells” and the “final tumor volume (mean±S.E.)” value ([1]; Day 13 to Day 80, vehicle 1004±140.1, in mm³ (unit assumed)) is reported as 403.2±50.0. For the same compound, the toxicity in mice ([1]; ~9 wks) was “No toxicity”, the inhibition at 5 µM (Akt1; 5 μM) was 32% and the “concentration inhibiting Akt1 kinase activity in vitro” value (Akt1; discussion statement) was at least 1 µM. The inhibition at 0.5 µM [2] was about 90%, the “cytotoxic effects on A549 lung cancer cells” value (A549 lung cancer cells; 1 μM or less) was “no obvious cytotoxic effects” and the “toxicity toward A549 cancer cells” value (A549 lung cancer cells; 5 μM, 48 hours) was “weak toxicity”. The “toxicity on A549 lung cancer cells” value (A549 lung cancer cells; concentrations greater than 10 μM) was “substantial toxicity”, the “inhibition of growth in soft agar” value (HCT116 p53+/+ cells; 0.05 μM) was “no inhibition” and the inhibition at 0.1 µM (HCT116 p53+/+ cells; Homo sapiens, HCT-116, 0.1 μM, read-out: inhibition of growth in soft agar) was 55%.
